# Tests used:
# [1] = target: T1, ERβ (estrogen receptor β) (Homo sapiens, UniProt Q92731); assay: ERE-luciferase reporter assay in HEK293T cells transfected with Flag-ERβ (agonist); format: cell-based
# T1 construct: gene ESR2; c-Flag ERβ (OHu25562D; pcDNA3.1+/C-(K) DYK)
# [2] = target: T2, ERα (estrogen receptor α) (Homo sapiens, UniProt P03372); assay: ERE-luciferase reporter assay in HEK293T cells transfected with Flag-ERα (weaker activation than ERβ); format: cell-based
# T2 construct: gene ESR1; c-Flag ERα (OHu26586D; pcDNA3.1+/C-(K) DYK)
# T2 sequence (P03372 1-595): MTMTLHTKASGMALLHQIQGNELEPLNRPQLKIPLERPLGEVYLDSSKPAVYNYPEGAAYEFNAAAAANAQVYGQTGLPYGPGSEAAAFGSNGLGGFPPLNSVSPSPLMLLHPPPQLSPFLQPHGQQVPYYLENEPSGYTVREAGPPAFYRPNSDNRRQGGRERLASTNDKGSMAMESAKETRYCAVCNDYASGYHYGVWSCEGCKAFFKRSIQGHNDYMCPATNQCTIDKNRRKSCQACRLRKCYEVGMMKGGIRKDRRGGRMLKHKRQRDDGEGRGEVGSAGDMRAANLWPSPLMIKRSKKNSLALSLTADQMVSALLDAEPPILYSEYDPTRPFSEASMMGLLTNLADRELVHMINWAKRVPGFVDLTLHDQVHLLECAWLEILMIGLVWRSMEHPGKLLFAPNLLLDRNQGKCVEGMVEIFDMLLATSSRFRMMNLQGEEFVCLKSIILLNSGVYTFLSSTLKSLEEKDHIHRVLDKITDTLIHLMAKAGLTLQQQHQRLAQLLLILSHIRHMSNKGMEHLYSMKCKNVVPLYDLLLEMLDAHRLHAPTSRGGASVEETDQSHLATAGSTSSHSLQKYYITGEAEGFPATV
# T1 sequence (Q92731 whole entry): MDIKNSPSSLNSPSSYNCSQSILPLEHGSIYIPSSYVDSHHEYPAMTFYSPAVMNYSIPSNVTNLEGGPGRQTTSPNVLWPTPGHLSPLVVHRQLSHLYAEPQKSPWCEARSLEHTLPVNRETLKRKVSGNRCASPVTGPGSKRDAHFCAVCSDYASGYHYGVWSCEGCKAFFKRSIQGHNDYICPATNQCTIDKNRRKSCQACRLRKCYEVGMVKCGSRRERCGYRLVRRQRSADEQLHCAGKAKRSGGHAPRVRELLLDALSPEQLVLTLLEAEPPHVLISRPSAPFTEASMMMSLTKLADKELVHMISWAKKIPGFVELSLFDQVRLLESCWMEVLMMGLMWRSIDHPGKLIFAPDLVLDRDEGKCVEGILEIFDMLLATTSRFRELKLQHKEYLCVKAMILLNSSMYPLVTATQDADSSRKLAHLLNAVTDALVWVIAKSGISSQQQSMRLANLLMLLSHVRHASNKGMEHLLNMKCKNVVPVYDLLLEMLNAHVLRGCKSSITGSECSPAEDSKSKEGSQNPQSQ
"fold induction at 0.01 µM ([1]; HEK-293T, read-out: ERE-luciferase reporter assay in HEK293T cells transfected with Flag-ERβ (agonis))",fold induction at 0.01 µM ([2]; HEK-293T),Compound,"ERE-luciferase reporter assay in HEK293T cells transfected with Flag-ERβ (agonis) ([1]; hek293t cells, 0.03 µM)","ERE-luciferase reporter assay in HEK293T cells transfected with Flag-ERα (weaker) ([2]; hek293t cells, 0.03 µM)"
–,–,OSU-ERb-12,~ 40 fold activation at 30 nmol/l,~ 4 fold activation at 30 nmol/l
84,2.1,Oc1ccc([C@@H]2Oc3ccc(O)cc3[C@@H]3CCC[C@@H]32)cc1 [LY500307],–,–

# From PMC9097292, “Activity of Estrogen Receptor β Agonists in Therapy-Resistant Estrogen Receptor-Positive Breast Cancer” (Frontiers in Oncology, 2022)
